Results from US20260152503A1, “SPIROBICYCLIC COMPOUNDS” (ACERAND THERAPEUTICS (HONG KONG) LIMITED, priority 2022, published 2026).

What was measured:
Assay type in all cases: cell-based
FGFR2 = molecular target: T1, FGFR2 (Homo sapiens, UniProt P21802, K310R/N549K); test: pERK potency assay (In Cell ELISA), AN3CA cells; details: for IC50: pERK, AN3CA (FGFR2/k310R, N549K) cells, 3 hours; for FGFR1 IC50/FGFR2 IC50 / FGFR3 IC50/FGFR2 IC50: selectivity ratio, pERK potency; for FGFR1 IC50/FGFR2 IC50: FGFR2 relative to FGFR1; for FGFR3 IC50/FGFR2 IC50: FGFR2 relative to FGFR3
T1 construct: in FGFR aberrations of AN3CA (FGFR2/k310R, N549K); host or cells: AN3CA
Source text: (§1) The purpose of this assay is to measure the ability of test compounds to inhibit FGFR mediated downstream signaling cascades, i.e., ERK phosphorylation in cells with FGFR aberrations. FGFR aberrations become constitutively active and thus induces cascades of cellular signaling events that result in increased phosphorylation of ERK at Threonine 202 and Tyrosine 204 (pERK). The procedure called In Cell ELISA described below measures the level of cellular pERK in response to FGFR specific inhibitor compounds in FGFR aberrations of AN3CA (FGFR2/k310R, N549K), DMS114 (FGFR1 amplification), RT112 (FGFR3 overexpression/FGFR3-TACC3 fusion) and Hep3B (FGF19 amplification) cells. AN3CA, DMS114 and Hep3B cells are from ATCC. RT112 cells are from Sigma. DMS114 cells are grown and maintained using RPMI-1640 medium supplemented with 10% heat-inactivated fetal bovine serum. AN3CA, Hep3B and RT112 cells are grown and maintained using DMEM supplemented with 10% heat-inactivated fetal bovine serum. On the day before test compound addition, cells are plated in poly-D-lysine coated 96-well cell culture plates (Corning® BioCoat® Cat #356640) at 40000 cells/well/100 μL and grown overnight in a 37° C., 5% CO2 incubator. Test compounds are prepared with 4-fold serial dilutions in DMSO, with a top concentration of 10 μM. On the day of the assay, 50 μL of test compound diluted in media was added to each well of cell culture plate with the final concentration of compounds spanning from 0.000038 μM to 10 μM. After compound addition, cells are incubated for 3 hours at 37° C., 5% CO2 and then the culture medium is removed. Cells are fixed with 4% formaldehyde in phosphate-buffered saline (PBS) and incubated at RT for 20 min. The plate is then washed three times with PBST (PBS with 0.05% tween-20), followed by the incubation with 100 μL of pre-cooled methanol at −20° C. for 20 min. After incubation, methanol is removed, and the plate is washed once with PBST. Cells are permeabilized with 100 µL/well of 0.1% Triton X-100 in PBS at RT for 20 min and then quenched with quenching buffer (PBST containing 1% H2O2 and 0.1% sodium azide) for 20 min at RT with gentle shaking. After washing once with PBST, blocking buffer (250 ul/well, Pierce™ Protein-Free-PBS Blocking Buffer, Cat #37572) was then added to the cells for 1-h incubation at RT, followed by anti-pERK antibody (cell signaling, 1:1000 dilution in 5% BSA in PBST) incubation overnight at 4° C. and secondary antibody-HRP (Jackson immunoresearch, 1:3000 dilution in 5% BSA in PBST) incubation at RT for 1 h. PBST wash is carried out after each step three times. Before the addition of the substrate (Advansta ELISABright), the plate is washed with PBS twice to remove detergent residues. Cellular pERK level is determined using the microplate reader (Biotek Synergy H1) to detect the chemiluminescence signal. IC50 is determined by fitting a 4-parameter sigmoidal concentration-response model. FGFR wild type cells (H1975, PC-9 and AGS) are used to serve as negative control (FGFR selectivity) with the same assay procedures described above.

FGFR1 = molecular target: T2, FGFR1 (Homo sapiens, UniProt P11362); test: pERK potency assay (In Cell ELISA), DMS114 cells; details: DMS114 (FGFR1 amplification) cells, 3 hours
T2 construct: DMS114 (FGFR1 amplification); host or cells: DMS114
Source text: as §1

FGFR3 = molecular target: T3, FGFR3 (Homo sapiens, UniProt P22607); test: pERK potency assay (In Cell ELISA), RT112 cells; details: RT112 (FGFR3 overexpression/FGFR3-TACC3 fusion) cells, 3 hours
T3 construct: RT112 (FGFR3 overexpression/FGFR3-TACC3 fusion); host or cells: RT112; the other entry of the earlier key: TACC3 (Q9Y6A5, Transforming acidic coiled-coil-containing protein 3)
Source text: as §1

T1 sequence (P21802 22-821 K310R/N549K): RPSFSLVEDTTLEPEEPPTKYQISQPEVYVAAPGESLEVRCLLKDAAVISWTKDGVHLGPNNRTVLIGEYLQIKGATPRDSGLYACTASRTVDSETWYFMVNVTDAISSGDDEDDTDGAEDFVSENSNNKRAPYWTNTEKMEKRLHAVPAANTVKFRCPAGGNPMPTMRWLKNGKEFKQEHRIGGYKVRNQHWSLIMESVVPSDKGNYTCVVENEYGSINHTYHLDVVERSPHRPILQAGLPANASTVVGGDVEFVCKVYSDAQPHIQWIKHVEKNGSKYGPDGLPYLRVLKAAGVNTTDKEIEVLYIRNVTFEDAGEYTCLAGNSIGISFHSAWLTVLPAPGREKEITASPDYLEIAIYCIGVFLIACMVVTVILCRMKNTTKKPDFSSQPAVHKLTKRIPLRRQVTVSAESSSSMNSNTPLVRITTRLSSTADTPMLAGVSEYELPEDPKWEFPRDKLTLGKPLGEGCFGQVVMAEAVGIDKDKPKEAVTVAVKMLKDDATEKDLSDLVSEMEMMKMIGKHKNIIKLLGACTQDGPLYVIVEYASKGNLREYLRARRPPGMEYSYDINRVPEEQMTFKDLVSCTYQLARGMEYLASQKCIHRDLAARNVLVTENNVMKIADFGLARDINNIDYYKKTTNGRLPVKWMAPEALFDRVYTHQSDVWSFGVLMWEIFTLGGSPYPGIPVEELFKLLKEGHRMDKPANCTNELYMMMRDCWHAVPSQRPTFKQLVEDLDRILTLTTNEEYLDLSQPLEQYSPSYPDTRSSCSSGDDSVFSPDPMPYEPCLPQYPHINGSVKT
T2 sequence (P11362 22-822): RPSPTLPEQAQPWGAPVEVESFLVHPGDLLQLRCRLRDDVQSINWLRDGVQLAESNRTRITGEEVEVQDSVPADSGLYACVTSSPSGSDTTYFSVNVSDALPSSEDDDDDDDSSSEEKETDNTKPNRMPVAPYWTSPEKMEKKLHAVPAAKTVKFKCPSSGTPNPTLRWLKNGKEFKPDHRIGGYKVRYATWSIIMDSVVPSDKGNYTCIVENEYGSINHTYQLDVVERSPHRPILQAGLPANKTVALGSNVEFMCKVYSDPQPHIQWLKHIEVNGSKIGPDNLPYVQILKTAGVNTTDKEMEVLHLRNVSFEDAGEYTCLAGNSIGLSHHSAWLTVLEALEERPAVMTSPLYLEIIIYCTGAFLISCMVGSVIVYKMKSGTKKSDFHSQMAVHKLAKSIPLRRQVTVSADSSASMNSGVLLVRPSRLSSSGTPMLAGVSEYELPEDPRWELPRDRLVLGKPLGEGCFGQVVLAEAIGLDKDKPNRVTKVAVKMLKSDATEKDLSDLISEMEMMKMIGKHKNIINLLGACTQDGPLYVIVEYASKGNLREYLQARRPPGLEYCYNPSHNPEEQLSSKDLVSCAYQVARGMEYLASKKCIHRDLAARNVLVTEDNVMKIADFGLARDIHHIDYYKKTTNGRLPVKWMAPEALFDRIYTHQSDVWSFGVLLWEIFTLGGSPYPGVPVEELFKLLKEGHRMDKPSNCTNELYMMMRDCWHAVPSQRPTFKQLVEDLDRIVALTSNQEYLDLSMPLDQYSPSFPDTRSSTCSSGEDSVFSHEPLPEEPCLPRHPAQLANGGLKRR

| SMILES | IC50 (FGFR2) [nM] | FGFR1 IC50/FGFR2 IC50 (FGFR2) | FGFR3 IC50/FGFR2 IC50 (FGFR2) | IC50 (FGFR1) [nM] | IC50 (FGFR3) [nM] |
| --- | --- | --- | --- | --- | --- |
| C=CC(=O)N1CCC2(CC=C(c3c(-c4nccc(C)n4)c4c(N)ncnc4n3C)CC2)CC1 [Example 35, 1-(9-(4-amino-7-methyl-5-(4-methylpyrimidin-2-yl)-7H-pyrrolo[2,3-d]pyrimidin-6-yl)-3-azaspiro[5.5]undec-8-en-3-yl)prop-2-en-1-one] | 10 to 30 | F (a selectivity ratio greater than 50 but less than or equal to 150) | G (a selectivity ratio greater than 150 but less than or equal to 500) | > 100 | > 100 |
| C=CC(=O)N1CCC2(CC=C(c3c(-c4ccc(OC5CC5)cc4)c4c(N)ncnc4n3C(F)F)CC2)CC1 [Example 36, 1-(9-(4-amino-5-(4-cyclopropoxyphenyl)-7-(difluoromethyl)-7H-pyrrolo[2,3-d]pyrimidin-6-yl)-3-azaspiro[5.5]undec-8-en-3-yl)prop-2-en-1-one] | 1 to 10 | F (a selectivity ratio greater than 50 but less than or equal to 150) | G (a selectivity ratio greater than 150 but less than or equal to 500) | 30 to 100 | > 100 |
| C=CC(=O)N1CCC2(CC=C(c3c(-c4ccc(C#N)nc4)c4c(N)ncnc4n3C(F)F)CC2)CC1 [Example 37, 5-(6-(3-acryloyl-3-azaspiro[5.5]undec-8-en-9-yl)-4-amino-7-(difluoromethyl)-7H-pyrrolo[2,3-d]pyrimidin-5-yl)picolinonitrile] | 10 to 30 | G (a selectivity ratio greater than 150 but less than or equal to 500) | G (a selectivity ratio greater than 150 but less than or equal to 500) | > 100 | > 100 |
| [2H]C([2H])([2H])Oc1ccc(-c2c(C3=C(F)CC4(CC3)CCN(C(=O)C=C)CC4)n(C)c3ncnc(N)c23)cc1 [Example 38, 1-(9-(4-amino-5-(4-(methoxy-d3)phenyl)-7-methyl-7H-pyrrolo[2,3-d]pyrimidin-6-yl)-8-fluoro-3-azaspiro[5.5]undec-8-en-3-yl)prop-2-en-1-one] | ≤ 1 | F (a selectivity ratio greater than 50 but less than or equal to 150) | F (a selectivity ratio greater than 50 but less than or equal to 150) | 30 to 100 | 30 to 100 |
| C=CC(=O)N1CCC2(CC=C(c3c(-c4ccc(OC)nc4)c4c(N)ncnc4n3C)CC2)CC1(C)C (stereo not shown) [Example 40, 1-(9-(4-amino-5-(6-methoxypyridin-3-yl)-7-methyl-7H-pyrrolo[2,3-d]pyrimidin-6-yl)-2,2-dimethyl-3-azaspiro[5.5]undec-8-en-3-yl)prop-2-en-1-one] | 1 to 10 | G (a selectivity ratio greater than 150 but less than or equal to 500) | I (a selectivity ratio greater than 1000 but less than or equal to 2000) | > 100 | > 100 |
| C=CC(=O)N1CCC2(CC=C(c3c(-c4ccc(F)cc4)c4c(N)ncnc4n3C)CO2)CC1 [Example 41, 1-(3-(4-amino-5-(4-fluorophenyl)-7-methyl-7H-pyrrolo[2,3-d]pyrimidin-6-yl)-1-oxa-9-azaspiro[5.5]undec-3-en-9-yl)prop-2-en-1-one] | 1 to 10 | H (a selectivity ratio greater than 500 but less than or equal to 1000) | H (a selectivity ratio greater than 500 but less than or equal to 1000) | > 100 | > 100 |
| C=CC(=O)N1CCC2(CC=C(c3c(-c4ncc(OC5COC5)cn4)c4c(N)ncnc4n3C)CC2)CC1 [Example 46, 1-(9-(4-amino-7-methyl-5-(5-(oxetan-3-yloxy)pyrimidin-2-yl)-7H-pyrrolo[2,3-d]pyrimidin-6-yl)-3-azaspiro[5.5]undec-8-en-3-yl)prop-2-en-1-one] | 1 to 10 | H (a selectivity ratio greater than 500 but less than or equal to 1000) | J (a selectivity ratio greater than 2000) | > 100 | > 100 |
| C=CC(=O)N1CCC2(CC=C(c3c(-c4ncc5c(n4)CCO5)c4c(N)ncnc4n3C)CC2)CC1 [Example 48, 1-(9-(4-amino-5-(6,7-dihydrofuro[3,2-d]pyrimidin-2-yl)-7-methyl-7H-pyrrolo[2,3-d]pyrimidin-6-yl)-3-azaspiro[5.5]undec-8-en-3-yl)prop-2-en-1-one] | 1 to 10 | H (a selectivity ratio greater than 500 but less than or equal to 1000) | J (a selectivity ratio greater than 2000) | > 100 | > 100 |
| C=CC(=O)N1CCC2(CC=C(c3c(-c4ncccc4F)c4c(N)ncnc4n3C)CC2)CC1 [Example 49, 1-(9-(4-amino-5-(3-fluoropyridin-2-yl)-7-methyl-7H-pyrrolo[2,3-d]pyrimidin-6-yl)-3-azaspiro[5.5]undec-8-en-3-yl)prop-2-en-1-one] | 30 to 100 | G (a selectivity ratio greater than 150 but less than or equal to 500) | G (a selectivity ratio greater than 150 but less than or equal to 500) | > 100 | > 100 |
| C=CC(=O)N1CCC2(CC=C(c3c(-c4ncco4)c4c(N)ncnc4n3C)CC2)CC1 [Example 53, 1-(9-(4-amino-7-methyl-5-(oxazol-2-yl)-7H-pyrrolo[2,3-d]pyrimidin-6-yl)-3-azaspiro[5.5]undec-8-en-3-yl)prop-2-en-1-one] | > 100 | – | – | > 100 | > 100 |
| C=CC(=O)N1CCC2(CC=C(c3c(-c4ncccn4)c4c(N)ncnc4n3CCO)CC2)CC1 [Example 54, 1-(9-(4-amino-7-(2-hydroxyethyl)-5-(pyrimidin-2-yl)-7H-pyrrolo[2,3-d]pyrimidin-6-yl)-3-azaspiro[5.5]undec-8-en-3-yl)prop-2-en-1-one] | 1 to 10 | F (a selectivity ratio greater than 50 but less than or equal to 150) | G (a selectivity ratio greater than 150 but less than or equal to 500) | > 100 | > 100 |
| C=CC(=O)N1CCC2(CC=C(c3c(C4COC4)c4c(N)ncnc4n3C)CC2)CC1 [Example 55, 1-(9-(4-amino-7-methyl-5-(oxetan-3-yl)-7H-pyrrolo[2,3-d]pyrimidin-6-yl)-3-azaspiro[5.5]undec-8-en-3-yl)prop-2-en-1-one] | ≤ 1 | – | F (a selectivity ratio greater than 50 but less than or equal to 150) | 10 to 30 | 30 to 100 |
| C=CC(=O)N1CCC2(CC=C(c3c(-c4ccncn4)c4c(N)ncnc4n3C)CC2)CC1 [Example 60, 1-(9-(4-amino-7-methyl-5-(pyrimidin-4-yl)-7H-pyrrolo[2,3-d]pyrimidin-6-yl)-3-azaspiro[5.5]undec-8-en-3-yl)prop-2-en-1-one] | 10 to 30 | – | F (a selectivity ratio greater than 50 but less than or equal to 150) | > 100 | > 100 |
